From US12403122B2, “Method for treating amyotrophic lateral sclerosis using quercetin-containing compositions” (Quercis Pharma AG, priority 2021, dated 2025)
“Also recorded” adds a separate entry of the source.

Experiments:
[1] = test system: SOD1G93A mutant rat model of ALS; assay: Immunohistochemical staining of spinal cords after post-paralysis isoquercetin treatment (Example 1); format: in vivo; conditions: SOD1G93A rats, versus vehicle
Method: Materials and Methods: Animals: Male SOD1G93A progeny were used for further breeding to maintain the line. Rats were housed in a centralized animal facility with a 12-h light-dark cycle with ad libitum access to food and water. Perfusion with fixatives was performed under 90% ketamine-10% xylazine anesthesia and all efforts were made to minimize animal suffering, discomfort, or stress. All procedures using laboratory animals were performed in accordance with the national and international guidelines and were approved by the Institutional Animal Committee for animal experimentation. Male hemizygous NTac:SD-TgN (SOD1-G93A)L26H rats (Taconic), originally developed by Howland et al. (2002), were bred locally by crossing with wild-type nontransgenic Sprague-Dawley female rats.
Treatment with Isoquercetin: All rats were weighed and evaluated for motor activity daily.
Fixed spinal cords were removed, postfixed by immersion for 24 h, and then transverse sectioned ([…]) in a Leica cryostat. Serial sections were collected in 100 mM PBS for immunohistochemistry.

rat model of ALS = conditions: downregulation of aberrant glial cells and reactive microglia; cited from earlier work

Row | SMILES | number of ventral horn motor neurons expressing misfolded SOD1 and Ubiquitin ([1]; 15 days after paralysis onset) | microgliosis: number of Iba1+ cells in the ventral horn of the lumbar spinal cord ([1]; oral 30 mg/kg/day for 15 days starting after paralysis onset, 30 mg/kg/day) | number of hypertrophic (reactive, GFAP-positive) astrocytes surrounding motor neurons in the lumbar spinal cord ([1]; oral 30 mg/kg/day for 15 days starting after paralysis onset, given together with vitamin C and niacin, 30 mg/kg/day) | paralysis progression (rat model of ALS)
1 | O=c1c(O[C@@H]2O[C@H](CO)[C@@H](O)[C@H](O)[C@H]2O)c(-c2ccc(O)c(O)c2)oc2cc(O)cc(O)c12 [isoquercetin, quercetin-3-O-β-d-glucopyranoside] | apparently reduced; also recorded: significant reduction | significantly reduced; also recorded: Significant reduction | significantly reduced; also recorded: significant reduction | 
2 | Cc1ccc(NC(=O)c2ccc(CN3CCN(C)CC3)cc2)cc1Nc1nc(-c2cccnc2)cs1 [masitinib] |  |  |  | slowed paralysis progression
